US5698669A, “Tri-arginine insulins” (Eli Lilly and Company, priority 1995, dated 1997)

Assays:
[1] = system: New Zealand White rabbits; assay: Blood glucose in fasted rabbits after subcutaneous injection of 40 U/ml insulin solutions; type: in vivo, rabbit; conditions: for hypoglycemic activity: statement in words, animal model; for Percent of Original Blood Glucose: added zinc 0 mg/ml, 0.2 U/kg s.c., rabbits, n = 10
Protocol: Solutions were prepared containing various amounts of zinc (0-2.4 mg/ml) in the form of zinc chloride. Glacial acetic acid was used to solublize each of the solutions at a final pH range of pH 4-6.
New Zealand White rabbits, mostly female, all weighing 2.7-4 kg, 0.5-4 years of age and fasted 16 hours prior to administration of sample were used for testing.
At various times, 100 μl volumes of blood were obtained from the marginal ear veins, mixed with 900 μl volumes of anticoagulant (EDTA-sodium fluoride) and analyzed for glucose content. The glucose values were standardized to reflect percent of original blood glucose measured prior to sample injection.

human proinsulin (human) = human proinsulin (human) (UniProt P01308)
[2] = standardized value used for formulating 40 U/ml solutions; cited from earlier work
[3] = target: des(64) human proinsulin (human) (UniProt P01308)

Q: Which hypoglycemic activity [1] does the source give for “Split(64) HPI: human proinsulin wherein the peptide bond between Lys-64 and Arg-65 is broken” here?
A: hypoglycemic activity of its own

Q: For “Pseudomonas aeruginosa Endopeptidase-Lys-C (Promega) (enzyme)”, which conversion of human proinsulin to split(64) proinsulin (preparative HPLC, yield of product) (human proinsulin (human)) is on record?
A: 237 mg

Q: Which “standardized value (potency per mass)” value [2] does the source give for “human insulin: natural human insulin, reference for biopotency” here?
A: 28.85 U/mg

Q: With “pork trypsin (Sigma) (from UniProt P00761) (enzyme)” as the substance, how does the conversion of des(64) human proinsulin to tri-arg insulin (preparative HPLC, yield of product) [3] read?
A: 0.94 g

Q: For “Des(64) HPI: split(64) proinsulin wherein Lys-64 is removed”, which “Percent of Original Blood Glucose” value ([1]; 4 hours after injection) is on record?
A: 99.6%

Q: What about the “Percent of Original Blood Glucose” value ([1]; 6 hours after injection) of the same substance?
A: 90.0%

Q: And the hypoglycemic activity [1]?
A: hypoglycemic activity of its own
